Data as given in patent publication US9132291B2, “Water-in-oil emulsion compositions containing gellan gum for topical delivery of active ingredients to the skin or mucosa” (DFB Technology, Ltd., priority 2010, dated 2015).
Counter-ions that a name gives are not always drawn.

Experiment: In-Vitro Release Test (Franz Cell diffusion apparatus, 0.45 um Durapore HVLP membrane)
Type: physicochemical
Settings: 0.5-6 hours at 35° C.
Procedure: A 0.45 um Durapore HVLP membrane was used between the donor and receptor compartments. The receptor fluid used for analysis of lidocaine HCl was 0.2M NaH2PO4/EtOH/SDS (69/30/1). The receptor fluid used for analysis of metronidazole was 600 mL Ethanol (USP) and 400 mL Phosphate Buffer (1.3 g Na2HPO4 and 1.5 g KH2PO4). The receptor fluid used for analysis of allantoin was 10 mM KH2PO4 buffer (pH=4.7). The sampling of the receptor fluid was performed at 0.5, 1, 2, 4 and 6 hours at 35° C. The concentration of the released actives in the collected samples of the receptor fluid was determined by HPLC analysis. The HPLC mobile phase used for analysis of lidocaine HCl was 0.2M NaH2PO4/EtOH/SDS (69/30/1). The HPLC mobile phase used for analysis of metronidazole was 600 mL Ethanol (USP) and 400 mL Phosphate Buffer (1.3 g Na2HPO4 and 1.5 g KH2PO4). The HPLC mobile phase used for analysis of allantoin was ACN/Water (90/10).

With `NC(=O)NC1NC(=O)NC1=O` (stereo not drawn) [allantoin, Allantoin] the “rate of release of allantoin” value (Formulas D, E, F (0%, 0.45%, 0.75% gellan gum; 0.1% allantoin) W/O emulsion, receptor fluid 10 mM KH2PO4 buffer pH 4.7, FIG. 3 and FIG. 4) was “increased as the concentration of gellan gum increased”.
For `CCN(CC)CC(=O)Nc1c(C)cccc1C` [lidocaine HCl, Lidocaine HCl], the “rate of release of lidocaine HCl” value (Formulas G, H, I (0%, 0.45%, 0.75% gellan gum; 2.0% lidocaine HCl) W/O emulsion, receptor fluid 0.2M NaH2PO4/EtOH/SDS (69/30/1), FIG. 5 and FIG. 6) was “increased as the concentration of gellan gum increased”.
In the case of `Cc1ncc([N+](=O)[O-])n1CCO` [metronidazole, Metronidazole], the “rate of release of metronidazole” value (Formulas A, B, C (0%, 0.45%, 0.75% gellan gum; 0.75% metronidazole) W/O emulsion, receptor fluid ethanol/phosphate buffer, FIG. 1 and FIG. 2) is reported as “increased as the concentration of gellan gum increased”.
